Where two headings read alike, the source gives them in different places.
Molecular target: T1, TRPC5 (Homo sapiens, UniProt Q9UL62)
T1 construct: expressed in transfected cells
T1 sequence (Q9UL62 1-973): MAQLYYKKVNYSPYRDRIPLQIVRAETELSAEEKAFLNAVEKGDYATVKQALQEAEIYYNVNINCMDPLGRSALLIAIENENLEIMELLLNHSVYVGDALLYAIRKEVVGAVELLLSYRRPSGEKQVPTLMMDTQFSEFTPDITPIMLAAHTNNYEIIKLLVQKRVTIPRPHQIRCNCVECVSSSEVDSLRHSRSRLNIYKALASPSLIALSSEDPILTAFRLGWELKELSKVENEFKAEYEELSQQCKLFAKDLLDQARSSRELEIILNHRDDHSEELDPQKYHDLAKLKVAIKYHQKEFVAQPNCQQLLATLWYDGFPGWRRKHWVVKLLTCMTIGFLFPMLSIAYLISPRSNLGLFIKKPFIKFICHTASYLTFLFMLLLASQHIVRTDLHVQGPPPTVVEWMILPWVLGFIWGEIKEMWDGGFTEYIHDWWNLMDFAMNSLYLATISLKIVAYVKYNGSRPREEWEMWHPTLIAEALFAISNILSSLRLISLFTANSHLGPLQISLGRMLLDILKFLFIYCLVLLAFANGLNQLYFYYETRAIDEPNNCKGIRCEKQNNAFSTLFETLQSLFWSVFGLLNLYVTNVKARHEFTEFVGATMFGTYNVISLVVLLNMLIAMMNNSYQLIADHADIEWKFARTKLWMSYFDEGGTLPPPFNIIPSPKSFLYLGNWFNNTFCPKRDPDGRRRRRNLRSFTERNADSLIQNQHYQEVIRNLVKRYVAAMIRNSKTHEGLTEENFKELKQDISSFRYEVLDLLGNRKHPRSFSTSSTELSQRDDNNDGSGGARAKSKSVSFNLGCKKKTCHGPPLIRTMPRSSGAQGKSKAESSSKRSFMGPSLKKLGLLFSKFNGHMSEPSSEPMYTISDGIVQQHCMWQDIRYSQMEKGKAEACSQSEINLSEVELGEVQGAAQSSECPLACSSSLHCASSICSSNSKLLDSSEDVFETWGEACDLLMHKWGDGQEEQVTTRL
Experiment: TRPC5 activity assay (FLIPR calcium fluorescence, HEK-TREx hTRPC5 cells)
Assay type: cell-based
Description: ICLN-1633 cells (HEK-TREx hTRPC5) expressing TRPC5 were generated as follows. Commercially available HekTrex-293 cells were seeded at 0.7×10^6 cells/well in a 1×6-well plate 24 hrs prior to transfection using 2 mL cell growth media containing no antibiotics (lx DMEM/high glucose (Hyclone #SH30022.02); 10% fetal bovine serum (Sigma) 2 mM sodium pyruvate, 10 mM HEPES). […] On day 2, 2 μg of plasmid DNA plus 6 μl of Xtreme-GENE HP reagent in Optimem (200 μl total volume) was prepared and incubated for 15 min at room temperature. This plasmid solution was then gently overlayed dropwise onto each well and the plate was gently swirled to mix complex with the media for approximately 30 seconds. Transfected cells were incubated at 37° C. in a 10% CO2 incubator for 24 hrs. The transfected cells were harvested and transferred into 2×150 mm dishes containing cell growth media with no antibiotics at 37° C.
The next day selection was initiated to generate a stable pool by adding cell growth media containing 150 μg/mL Hygromycin and 5 μg/mL Blasticidin and cells were allowed to grow. Media with the selection agent was changed every 1-2 days as needed to remove dead cells. After 7 days, the hygromycin concentration was reduced to 75 μg/mL and cells growth was allowed to continue.
Single clones were selected as follows. The stable pool was diluted to 10 cells/mL and seeded (100 μl/well) into 24×96 well plates (˜1 cell/well) and allowed to grow for 7 days in cell growth media. Fresh media (100 μl) was added and the cells allowed to grow for another 1-2 weeks and then stored frozen or used immediately.
10-point dose response curves were generated using the Echo-550 acoustic dispenser. Compound source plates were made by serially diluting compound stocks to create 10 mM, 1 mM, and 0.1 mM solutions in DMSO into Echo certified LDV plates. The Echo then serially spotted 100% DMSO stock solutions into source dose response plates to generate a 4-fold dilution scheme. 100% DMSO was added to the spotted dose response plates to bring the final volume to 5 μl. 300 nl of the dose response stock plate was then spotted into pre-incubation and stimulation assay plates. 50 μl of pre-incubation buffer and 100 μl of stimulation buffer was then added to the plates resulting in a final assay test concentration range of 30 μM to 0.0001 μM with a final DMSO concentration of 0.3%.
Human ICLN-1633 cells expressing were plated onto 384 well, black PDL-coated microplates and maintained in TRPC5 growth media the day prior to use for experiments. TRPC5 expression was induced by the application of 1 μg/mL tetracycline at the time of plating. […] Cells are incubated at room temperature, protected from light, for 60-90 minutes. After the incubation period, the dye is removed and replaced with 10 μl of EBSS. Cell, pre-incubation and stimulation plates are loaded onto the FLIPR-II and the assay is initiated. The FLIPR measures a 10 second baseline and then adds 10 μl of 2× compounds (or controls). Changes in fluorescence are monitored for an additional 5 minutes. After the 5 minute pre-incubation, 20 μl of 2× Riluzole (with 1× compound or controls) is added to the cell plate. The final Riluzole stimulation concentration in the assay is 30 μM. After the Riluzole addition, changes in fluorescence are monitored for an additional 5 minutes.
Compound modulation of TRPC5 calcium response was determined as follows. After the Englerin A, fluorescence was monitored for a 5-minute period. The maximum relative fluorescence response (minus the control response of 1 μM of an internal control compound known to maximally block TRPC5 calcium response, the “REF INHIB” in the formula below) was captured and exported from the FLIPR.
Compound effect is calculated as % inhibition using the following formula: […]
wherein “RFU” is the relative fluorescent units.

[1] = HEK-TREx hTRPC5 cells, FLIPR, 30 μM Riluzole stimulation, read-out: TRPC5

Structure (SMILES)	IC50 [1]	IC50 (Table 4, HEK-TREx hTRPC5, read-out: TRPC5-FLIPR IC50)	IC50 (Table 7, HEK-TREx hTRPC5, read-out: TRPC5-FLIPR IC50)
O=c1[nH]ncc(N2CCc3c(nc(CO)nc3Oc3ccc(F)cc3C(F)F)C2)c1Cl [Compound 134, 4-chloro-5-[4-[2-(difluoromethyl)-4-fluorophenoxy]-2-(hydroxymethyl)-5H,6H,7H,8H-pyrido[3,4-d]pyrimidin-7-yl]-2,3-dihydropyridazin-3-one]	< 50 nM		
O=c1[nH]ncc(N2CCc3c(ncnc3N(CCO)c3ccc(F)cc3C(F)(F)F)C2)c1Cl [Compound 136, 4-Chloro-5-(4-[[4-fluoro-2-(trifluoromethyl)phenyl](2-hydroxyethyl)amino]-5H,6H,7H,8H-pyrido[3,4-d]pyrimidin-7-yl)-2,3-dihydropyridazin-3-one]	< 50 nM		
Cn1c2c(c(Oc3ccc(F)cc3C(F)(F)F)nc1=O)CCN(c1cn[nH]c(=O)c1Cl)C2 [Compound 138, 4-Chloro-5-[4-[4-fluoro-2-(trifluoromethyl)phenoxy]-1-methyl-2-oxo-1H,2H,5H,6H,7H,8H-pyrido[3,4-d]pyrimidin-7-yl]-2,3-dihydropyridazin-3-one]	50 to 500 nM		
COc1nc2c(c(Oc3ccc(F)cc3C(F)(F)F)n1)CCN(c1cn[nH]c(=O)c1Cl)C2 [Compound 139, 4-Chloro-5-[4-[4-fluoro-2-(trifluoromethyl)phenoxy]-2-methoxy-5H,6H,7H,8H-pyrido[3,4-d]pyrimidin-7-yl]-2,3-dihydropyridazin-3-one]	50 to 500 nM		
O=c1[nH]ncc(N2CCc3c(Oc4ccc(F)cc4C(F)(F)F)ccnc3C2)c1Cl [Compound 140, 4-chloro-5-[4-[4-fluoro-2-(trifluoromethyl)phenoxy]-5,6,7,8-tetrahydro-1,7-naphthyridin-7-yl]-2,3-dihydropyridazin-3-one]	50 to 500 nM		
CCc1ncccc1[C@@H](C)n1nnc2c1CCN(c1cn[nH]c(=O)c1Cl)C2 [MS, 4-chloro-5-[1-[(1R)-1-(2-ethylpyridin-3-yl)ethyl]-1H,4H,5H,6H,7H-[1,2,3]triazolo[4,5-c]pyridin-5-yl]-2,3-dihydropyridazin-3-one]		0.01 to 1000 nM	0.01 to 1000 nM

Reference: patent US20220152031A1, “PYRIDAZINONES AND METHODS OF USE THEREOF” (Goldfinch Bio, Inc., priority 2019, published 2022)
